Assay results from PMC12748266, “Testing antimicrobial peptides inhibiting protein synthesis in living E. coli and K. pneumoniae using bio-orthogonal non-canonical amino-acid tagging” (Frontiers in Microbiology, 2025).
No end group written: not given here.

System: K. pneumoniae ribosomes
Experiment: In vitro translation assay (PURExpress, firefly luciferase) with purified ribosomes
Assay type: biochemical, K. pneumoniae ATCC 13883
Details: peptide at 5 μM, 30 min, 32 °C, luciferase luminescence, water control = 100%
Procedure: The ribosomes used in this study were purified as described previously ([Di Stasi et al., 2025]). Briefly, to purify the 70S ribosomes of ESKAPE pathogens, the bacterial strains E. faecium ATCC 19434 S. aureus ATCC 25923, K. pneumoniae ATCC 13883, A. baumannii ATCC 19606, P. aeruginosa ATCC 27853 and E. cloacae ATCC 13047 were grown in 2 L of Luria-Bertani (LB) medium, at 37 °C, until the mid-log phase was reached. After centrifugation at 7,000 rpm (12,000 × g) for 15 min at 20 °C (JLA rotor 8.1000), the bacterial pellet was resuspended in 50 mL of saline (0.9% w/v NaCl) and re-centrifuged at 15,000 rpm (27,000 × g) for 10 min at 20 °C (JA rotor 25.50). […] Finally, the solution was cleared of the last remaining impurities by centrifugation at 15,000 rpm (18,000 × g) for 15 min at 4 °C, and the ribosomes subjected to quantification by Nanodrop (A260). […]
The in vitro translation assay was performed by using the Δ ribosome from the E. coli PURExpress system New England Biolabs (NEB), as reported previously ([Di Stasi et al., 2025]; [Raulf et al., 2025]). […] Finally, 40 μL of luciferase assay substrate solution were added to the wells (Promega, E1501), and the luminescence measured using a plate reader (Tecan Infinite 200 PRO). The negative control of the test was nuclease-free water in place of the antibiotic, whose values were used to normalize the absolute luminescence values of the samples. […]

## RRIRPRPPRLPRPRPR [Bac7(1–16)]
  Inhibition of in vitro protein synthesis: 90%
